Key:
PARP-1 = PARP-1 (Homo sapiens, UniProt P09874); settings: cited from earlier work
Sirtuins = settings: most Sirtuins; cited from earlier work
[1] = cited from earlier work
Sirt1 = Sirt1 (Homo sapiens, UniProt Q96EB6); settings: cited from earlier work
[2] = estimated; cited from earlier work
[3] = no light and no contaminants in deionized/distilled H2O; cited from earlier work
[4] = cited from earlier work; remark: listed apart in the source
[5] = cited from earlier work; remark: listed apart in the source
CMV IgG = test: LabCor monthly serum marker testing: CMV IgG; assay type: in vivo, human; settings: person, oral twice daily
Method: (§1) A person weighing 88 kg at the beginning of the treatment was treated with a regimine of category 1, category 2, and category 3 molecules as noted below.
Typical final concentrations of NMN taken by subject were 3.5 grams in 500 mL H2O, betaine were 3 grams in 500 mL H2O, H2O2 were (2 drops of 35% concentration in 500 mL H2O), and NaSH were (drops of 2 at 66 uM per drop concentration in 500 mL H2O).
(§2) The amounts of each composition were set so that by the subject drinking the full 500 mL a final dosage approximately 1.19×10^−4 moles NMN/kg body weight per dose, 2.91×10^−4 moles betaine/kg body weight per dose, 1.17×10^−5 moles of H2O2/kg of body weight per dose, and 1.51×10^−6 moles cf NaSH/kg of body weight per dose was given to the subject through drinking the 500 mL solution.
(§3) By taking two similar dosages per day, the sum of the two daily equal allotments was • Nicotinamide Mononucleotide (NMN) dosage−2.38×10^−4 moles/Kg body weight/day • The betaine dosage−5.82×10^−4 moles/Kg body weight/day • The Hydrogen Peroxide (H2O2) dosage−2.34×10^−5 moles/Kg body weight/day • The Sodium Hydrogen Sulfide (NaSH) dosage−3.02×10^−6 moles/Kg body weight/day
(§4) The subject self-administered the formulations orally through drinking the solution at approximately 7AM and 7 PM each day. These times were chosen because they approximated the subjects' biological clock peaks of NAD+ as determined by Ramsey K 2009. This had the effect of pulsing the ingredients into the body twice a day. approximately timed with the biological clock of the subject.
(§5) LabCor Inc. performed the marker testing using standard protocols on a monthly basis. Blood draw times ranged between 8:19 am and 8:54 am. Inflammatory measurements are correlated to the biological clock. LabCor tested levels of CMV IgG, C-Reactive Protein, Tumor Necrosis Factor-Alpha, and Interleukin-6 in Serum.

C-Reactive Protein = test: LabCor monthly serum marker testing: C-Reactive Protein; assay type: in vivo, human; settings: for C-Reactive Protein: serum, person, oral twice daily, baseline 2.77
Method: The amounts of each composition were set so that by the subject drinking the full 500 mL a final dosage approximately 1.19×10^−4 moles NMN/kg body weight per dose, […] through drinking the 500 mL solution. […]
as §4, §5

[6] = system: Tumor Necrosis Factor-Alpha; test: LabCor monthly serum marker testing: Tumor Necrosis Factor-Alpha; assay type: in vivo, human; settings: person, oral twice daily, baseline 1.1
Method: The amounts of each composition were set so that by the […] given to the subject through drinking the 500 mL solution. […]
as §4, §5

Interleukin-6 = test: LabCor monthly serum marker testing: Interleukin-6; assay type: in vivo, human; settings: person, oral twice daily, study month 3: NMN alone, 3rd month, baseline 1.3
Method: as §1, §2, §3, §4
LabCor Inc. performed the marker testing using standard protocols on a monthly basis. […]

Inflammation Score = Inflammation Score (sum of the markers) and aging prediction after Arai 2015; assay type: in vivo, human; settings: person, baseline 5.17
Excerpt: Inflammation markers can be analyzed for aging including those markers found in the study by Arai in 2015. Aria found inflammation markers that were predictive of who would continue to live (life-span) and who would be physically and cognitively healthy (health-span). The markers used were CMV IgG, IL-6, TNF-alpha and CRP.
as §5
In the baseline condition for the subject, both C-reactive Protein (2.77 mg/L) and Interleukin-6 (1.3 pg/m14 measurements were above the “unrelated family” level (0.7 mg/l and 1.13 pg/mL) (Arai Y 2015, Table 1) as well as the “offspring” level (0.7 mg/l and 1.03 pg/mL) (Arai Y. 2015, Table 1) respectively. The […] subject of this study has a similar age to the “offspring” group and the “unrelated family” group of Arai. These two inflammation test scores effect the prediction algorithm to predict a worse aging outcome for the subject than the “offspring” or “unrelated family” groups of Arai at baseline.

[7] = NMN given to mice; cited from earlier work
CD38 = biological target: T1, CD38 (Homo sapiens, UniProt P28907); settings: CD38 substrate; cited from earlier work
T1 sequence (P28907 1-300): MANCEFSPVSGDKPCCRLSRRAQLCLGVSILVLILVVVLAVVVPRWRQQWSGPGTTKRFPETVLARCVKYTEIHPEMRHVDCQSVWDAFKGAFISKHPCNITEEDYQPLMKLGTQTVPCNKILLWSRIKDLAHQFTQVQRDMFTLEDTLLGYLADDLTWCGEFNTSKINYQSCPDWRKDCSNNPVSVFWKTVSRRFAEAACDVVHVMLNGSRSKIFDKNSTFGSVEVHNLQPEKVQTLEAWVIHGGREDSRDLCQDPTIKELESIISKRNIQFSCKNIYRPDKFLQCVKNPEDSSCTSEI

[8] = study month 1: NMN alone, 1st month
[9] = study month 2: NMN alone, 2nd month
[10] = study month 3: NMN alone, 3rd month

PARP-1, sequence (P09874 whole entry): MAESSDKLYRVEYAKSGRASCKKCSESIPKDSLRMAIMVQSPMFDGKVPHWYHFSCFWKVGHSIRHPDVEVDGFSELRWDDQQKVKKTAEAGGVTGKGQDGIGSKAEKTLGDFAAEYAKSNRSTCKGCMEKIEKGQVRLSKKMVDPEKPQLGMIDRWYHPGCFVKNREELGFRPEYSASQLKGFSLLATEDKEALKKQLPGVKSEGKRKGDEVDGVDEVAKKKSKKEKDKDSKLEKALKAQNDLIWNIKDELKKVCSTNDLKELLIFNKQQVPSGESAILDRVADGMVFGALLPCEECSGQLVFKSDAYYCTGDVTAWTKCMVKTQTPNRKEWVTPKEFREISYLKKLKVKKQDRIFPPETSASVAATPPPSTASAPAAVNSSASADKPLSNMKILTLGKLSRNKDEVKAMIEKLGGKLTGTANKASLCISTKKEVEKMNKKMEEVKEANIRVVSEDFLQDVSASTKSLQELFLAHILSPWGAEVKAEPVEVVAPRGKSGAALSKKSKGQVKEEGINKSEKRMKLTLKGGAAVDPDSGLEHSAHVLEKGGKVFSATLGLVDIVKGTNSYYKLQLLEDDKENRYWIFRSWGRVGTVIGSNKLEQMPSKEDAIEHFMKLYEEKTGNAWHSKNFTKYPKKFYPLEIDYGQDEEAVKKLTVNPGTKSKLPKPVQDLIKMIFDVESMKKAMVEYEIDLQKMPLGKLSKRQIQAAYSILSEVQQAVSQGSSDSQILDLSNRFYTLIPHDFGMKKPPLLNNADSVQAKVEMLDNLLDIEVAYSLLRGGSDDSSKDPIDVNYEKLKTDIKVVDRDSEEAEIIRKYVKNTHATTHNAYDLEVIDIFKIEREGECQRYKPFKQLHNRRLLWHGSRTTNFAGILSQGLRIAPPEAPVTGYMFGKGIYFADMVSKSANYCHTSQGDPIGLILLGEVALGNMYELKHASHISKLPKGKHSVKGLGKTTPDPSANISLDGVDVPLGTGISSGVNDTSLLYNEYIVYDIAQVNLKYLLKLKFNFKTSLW
Sirt1, sequence (Q96EB6 whole entry): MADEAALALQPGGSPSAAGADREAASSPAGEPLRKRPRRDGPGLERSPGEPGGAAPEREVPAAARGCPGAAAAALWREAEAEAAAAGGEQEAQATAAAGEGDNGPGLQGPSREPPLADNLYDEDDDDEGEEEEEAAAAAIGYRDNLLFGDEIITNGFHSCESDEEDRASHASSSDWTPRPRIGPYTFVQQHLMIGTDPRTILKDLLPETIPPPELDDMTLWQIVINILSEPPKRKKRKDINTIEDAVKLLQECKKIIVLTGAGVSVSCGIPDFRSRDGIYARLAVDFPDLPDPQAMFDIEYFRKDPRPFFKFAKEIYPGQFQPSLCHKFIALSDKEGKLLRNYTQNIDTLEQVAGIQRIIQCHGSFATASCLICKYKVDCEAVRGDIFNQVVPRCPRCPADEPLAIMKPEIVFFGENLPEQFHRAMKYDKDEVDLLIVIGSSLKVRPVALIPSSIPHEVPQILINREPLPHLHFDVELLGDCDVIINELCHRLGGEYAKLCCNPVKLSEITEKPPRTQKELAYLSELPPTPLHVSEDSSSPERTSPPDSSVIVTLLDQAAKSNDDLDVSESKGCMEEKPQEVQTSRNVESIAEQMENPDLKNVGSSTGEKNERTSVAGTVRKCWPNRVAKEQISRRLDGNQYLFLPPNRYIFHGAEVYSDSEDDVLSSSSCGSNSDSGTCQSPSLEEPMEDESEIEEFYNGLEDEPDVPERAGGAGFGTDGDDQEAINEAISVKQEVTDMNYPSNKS

NC(=O)c1ccc[n+]([C@@H]2O[C@H](COP(=O)([O-])OP(=O)(O)OC[C@H]3O[C@@H](n4cnc5c(N)ncnc54)[C@H](O)[C@@H]3O)[C@@H](O)[C@H]2O)c1 [NAD+, nicotinamide adenine dinucleotide]
Km (PARP-1; PARP-1, substrate NAD+): 20 to 60 µM | Km of PARP-1 lower than Sirtuin-1 (PARP-1; PARP-1 compared to Sirt1): 5 fold | Km (Sirtuins): 100 to 300 µM | absorption through the digestive system ([1]; in vivo): not absorbed well

OO [H2O2, hydrogen peroxide]
extracellular H2O2 inhibition of Sirt1 (Sirt1; extracellular H2O2): 1 µmol | extracellular concentration that inhibits Sirt1 (Sirt1; oxidizing critical cysteine residues in the Sirtuin active center): 1 µM | fraction absorbed by the gut [2]: ~50% | degradation rate [3]: about 10 %/year

S [H2S, hydrogen sulfide]
half-life ([4]; under in vivo conditions): between seconds and minutes

C[S+](CC[C@H](N)C(=O)O)C[C@H]1O[C@@H](n2cnc3c(N)ncnc32)[C@H](O)[C@@H]1O (stereo partly drawn) [SAM, S-5′-adenosyl-L-methionine]
fraction that gets into the body when ingested [5]: about 2%

S [NaHS, sodium hydrosulfide]
time to increase of H2S concentration ([4]; H2S donors): within seconds to minutes

NC(=O)c1ccc[n+]([C@@H]2O[C@H](CO)[C@@H](O)[C@H]2O)c1 [NR, nicotinamide riboside]
reaching muscle ([1]; orally delivered): largely not reach muscle

NC(=O)c1ccc[n+]([C@@H]2O[C@H](COP(=O)([O-])O)[C@@H](O)[C@H]2O)c1 [NMN, Nicotinamide mononucleotide]
CMV IgG (CMV IgG; [8]): 0 | CMV IgG (CMV IgG; [9]): 0 | CMV IgG (CMV IgG; [10]): 0 | CRP (C-Reactive Protein; after two months of treatment with NMN, subject): 0.43 mg/L | C-Reactive Protein (C-Reactive Protein; [9]): 0.43 mg/L | C-Reactive Protein (C-Reactive Protein; [10]): 0.53 mg/L | Tumor Necrosis Factor-Alpha [6, 8]: 0.9 pg/mL | Tumor Necrosis Factor-Alpha [6, 9]: 1.1 pg/mL | Tumor Necrosis Factor-Alpha [6, 10]: 1.1 pg/mL | Interleukin-6 Serum (Interleukin-6): 0.9 pg/mL | Inflammation Score (Inflammation Score; [8]): 8.55 | Inflammation Score (Inflammation Score; [9]): 2.23 | Inflammation Score (Inflammation Score; [10]): 2.53 | time to create NAD+ out of the NMN [7]: 15 min | kcat relative to that of NAD+ (CD38): 5 fold
